Reference: patent US11591341B2 (ALIGOS THERAPEUTICS, INC., priority 2019, dated 2023)

Test system: HBV
Experiment: HBV-DNA Antiviral Assay Using HepG2.117 Cells (intracellular HBV DNA by qPCR)
Assay type: cell-based, hepatitis B virus (genotype D)
Details: Hepatitis B virus, HepG2.117
Procedure, shortened: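 Endpoint: qPCR copy number of intracellular HBV DNA after 3-day compound exposure, with inhibition set relative to the 2% DMSO control. The cells were doxycycline-free HepG2.117 carrying a Tet-off genotype D genome, dosed at nine 4-fold dilutions. A duplicate plate gave ATP-based viability (CC50).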

In the case of `CC(C)Oc1ccc(-n2c(-c3ncc(Cc4ccccc4)s3)c3n(c2=O)CCN(C(=O)c2ccc(Br)c(Cl)c2)C3)cc1` [Example 325, 1-(5-benzylthiazol-2-yl)-7-(4-bromo-3-chlorobenzoyl)-2-(4-isopropoxyphenyl)-5,6,7,8-tetrahydroimidazo[1,5-a]pyrazin-3(2H)-one], the EC50 is reported as over 5000 nM.
Work on `N#CCOc1ccc(CNC(=O)c2c3n(c(=O)n2-c2ccc(OCC(F)(F)F)cc2)CCN(C(=O)c2ccc(Br)c(Cl)c2)C3)c(F)c1` [Example 326, 7-(4-bromo-3-chloro-benzoyl)-N-[[4-(cyanomethoxy)-2-fluoro-phenyl]methyl]-3-oxo-2-[4-(2,2,2-trifluoroethoxy)phenyl]-6,8-dihydro-5H-imidazo[1,5-a]pyrazine-1-carboxamide] yielded an EC50 of 100 to 500 nM.
In the case of `O=C(NCc1ccccc1-n1cc(F)cn1)c1c2n(c(=O)n1-c1ccc(OCC(F)(F)F)cc1)CCN(C(=O)c1ccc(Br)c(Cl)c1)C2` [Example 327, 7-(4-bromo-3-chloro-benzoyl)-N-[[2-(4-fluoropyrazol-1-yl)phenyl]methyl]-3-oxo-2-[4-(2,2,2-trifluoroethoxy)phenyl]-6,8-dihydro-5H-imidazo[1,5-a]pyrazine-1-carboxamide], the EC50 is reported as under 100 nM.
For `NC(=O)COc1ccc(CNC(=O)c2c3n(c(=O)n2-c2ccc(OCC(F)(F)F)cc2)CCN(C(=O)c2ccc(Br)c(Cl)c2)C3)c(-n2cccn2)c1` [Example 328, N-[[4-(2-amino-2-oxo-ethoxy)-2-pyrazol-1-yl-phenyl]methyl]-7-(4-bromo-3-chloro-benzoyl)-3-oxo-2-[4-(2,2,2-trifluoroethoxy)phenyl]-6,8-dihydro-5H-imidazo[1,5-a]pyrazine-1-carboxamide], the EC50 was 500 to 5000 nM.
`O=C(NCc1ccc(OC2COC2)cc1F)c1c2n(c(=O)n1-c1ccc(OCC(F)(F)F)cc1)CCN(C(=O)c1ccc(Br)c(Cl)c1)C2` [Example 329, 7-(4-bromo-3-chloro-benzoyl)-N-[[2-fluoro-4-(oxetan-3-yloxy)phenyl]methyl]-3-oxo-2-[4-(2,2,2-trifluoroethoxy)phenyl]-6,8-dihydro-5H-imidazo[1,5-a]pyrazine-1-carboxamide] showed an EC50 of 100 to 500 nM.
Compound `O=C(NCc1ccccc1)c1c2n(c(=O)n1-c1ccc(OC3CC(F)(F)C3)cc1)CCN(C(=O)c1ccc(Br)c(Cl)c1)C2` [Example 350, N-benzyl-7-(4-bromo-3-chloro-benzoyl)-2-[4-(3,3-difluorocyclobutoxy)phenyl]-3-oxo-6,8-dihydro-5H-imidazo[1,5-a]pyrazine-1-carboxamide] has an EC50 of 500 to 5000 nM.
For `N#Cc1ccc(-n2c(C(=O)NCc3ccccc3)c3n(c2=O)CCN(C(=O)c2ccc(Br)c(Cl)c2)C3)c(Cl)c1` [Example 351, N-benzyl-7-(4-bromo-3-chloro-benzoyl)-2-(2-chloro-4-cyano-phenyl)-3-oxo-6,8-dihydro-5H-imidazo[1,5-a]pyrazine-1-carboxamide], the EC50 was over 5000 nM.
With `O=C(NCc1ccccc1)c1c2n(c(=O)n1-c1ccc3[nH]c(C(F)(F)F)cc3c1)CCN(C(=O)c1ccc(Br)c(Cl)c1)C2` [Example 352, N-benzyl-7-(4-bromo-3-chloro-benzoyl)-3-oxo-2-[2-(trifluoromethyl)-1H-indol-5-yl]-6,8-dihydro-5H-imidazo[1,5-a]pyrazine-1-carboxamide] the EC50 was 500 to 5000 nM.
`O=C(NCc1ccc(OC2COC2)cc1F)c1c2n(c(=O)n1-c1ccc(OC3CC3)cc1)CCN(C(=O)c1ccc(Br)c(Cl)c1)C2` [Example 363, 7-(4-bromo-3-chloro-benzoyl)-2-[4-(cyclopropoxy)phenyl]-N-[[2-fluoro-4-(oxetan-3-yloxy)phenyl]methyl]-3-oxo-6,8-dihydro-5H-imidazo[1,5-a]pyrazine-1-carboxamide] showed an EC50 of 100 to 500 nM.
`Cn1ncc2cc(-n3c(C(=O)NCc4ccccc4)c4n(c3=O)CCN(C(=O)c3ccc(Br)c(Cl)c3)C4)ccc21` [Example 364, N-benzyl-7-(4-bromo-3-chloro-benzoyl)-2-(1-methylindazol-5-yl)-3-oxo-6,8-dihydro-5H-imidazo[1,5-a]pyrazine-1-carboxamide] showed an EC50 of 100 to 500 nM.
